This note sets out measurements from publication PMC9196629, “Synthesis, Characterization and Antitumor Mechanism Investigation of Heterometallic Ru(Ⅱ)-Re(Ⅰ) Complexes” (Frontiers in Chemistry, 2022).

Experiment [1] deals with A549 (human lung cancer cells). Nature of the experiment: MTT cytotoxicity assay. Type of experiment: cell-based. As to conditions: 48 h incubation, mean ± SD. As to the method: (§1) The anticancer activities of RuRe-1 and RuRe-2 against four cancer cell lines: HeLa (human cervical cancer cells), HepG2 (human hepatocellular carcinoma), A549 (human lung cancer cells), A549R (cisplatin-resistant A549) and one normal cell line LO2 (human normal liver cells) were determined by 3-(4,5-dimethylthiazole)-2,5-diphenyltetraazolium bromide (MTT) assay, while the mononuclear complexes Ru-1, Ru-2, Re-1 and cisplatin were selected as controls. […] And the in vitro antiproliferative efficacies of the compounds against HeLa cells were in the following order: RuRe-2 > RuRe-1 > Re-1 > cisplatin > Ru-1 > Ru-2. […] The anticancer activity of the mononuclear rhenium complex Re-1 was between 5.6 μM and 8.0 μM, which contributed the most to the antitumor activities of the heteronuclear Ru(II)-Re(Ⅰ) metal complexes.
(§2) Cell lines and culture conditions. HeLa, HepG2, A549, A549R and LO2 cells were purchased from Nanjing KeyGen Biotech., and cultured in DMEM or RPMI 1640 complete medium at 37 ℃ with 5% CO2 atmosphere.
(§3) In vitro cytotoxicity assay. The anti-tumor activity of mononuclear complexes Ru-1, Ru-2, Re-1 and heteronuclear RuRe-1 and RuRe-2 were determined by MTT (5 mg/mL) assay. Cells were placed in 96-well plates and cultured for 24 h at 37 ℃ in a 5% CO2 incubator. After replacing the culture medium with fresh medium containing RuRe-1 or RuRe-2 at the indicated concentration, cells were cultured for 48 h. 20 μL MTT was added to each well 4 h before the end of the incubation. Subsequently, the liquid in the cell wells was poured out and 150 μL/well DMSO was added to dissolve the MTT-formazan crystals. The absorbance of living cells at 570 nm was detected.

Experiment [2] relates to HeLa (human cervical cancer cells). Put plainly: MTT cytotoxicity assay. The experiment is classed as cell-based. The settings on record: 48 h incubation, mean ± SD. The method, then: as §1, §2, §3
(Formazan colour is commonly taken as a measure of viable cells.)

Experiment [3] deals with HepG2 (human hepatocellular carcinoma). Nature of the experiment: MTT cytotoxicity assay. The experiment is classed as cell-based. As to conditions: 48 h incubation, mean ± SD. The method, then:
as §1, §2, §3

Experiment [4] relates to LO2 (human normal liver cells). Put plainly: MTT cytotoxicity assay. The experiment is classed as cell-based. The settings on record: 48 h incubation, mean ± SD. As to the method:
as §1, §2, §3

Experiment [5] relates to A549R (cisplatin-resistant A549). Nature of the experiment: MTT cytotoxicity assay. The experiment is classed as cell-based, human. The settings on record: MTT, 48 h incubation, mean ± SD. As to the method: as §1, §2, §3
Experiment [6] deals with HeLa, HepG2, A549, A549R cancer cell lines. Nature of the experiment: MTT cytotoxicity assay, summary over the cell lines screened. The experiment is classed as cell-based, human. As to conditions: 48 h. The method, then: as §1
In vitro cytotoxicity assay. The anti-tumor activity of mononuclear complexes Ru-1, Ru-2, Re-1 and heteronuclear RuRe-1 and RuRe-2 were determined by MTT (5 mg/mL) assay. Cells were placed in 96-well plates and cultured for 24 h at 37 ℃ in a 5% CO2 incubator. After replacing the culture medium with fresh medium containing RuRe-1 or RuRe-2 at the indicated concentration, cells were cultured for 48 h. 20 μL MTT was added to each well 4 h before the end of the incubation. […] The absorbance of living cells at 570 nm was detected.

On to `F[P-](F)(F)(F)(F)F.F[P-](F)(F)(F)(F)F.c1cc2ccc3ccc[n+]4c3c2[n+](c1)[Ru-4]412([n+]3cccc4ccc5ccc[n+]1c5c43)[n+]1cccc3c4nc(-c5ccncc5)[nH]c4c4ccc[n+]2c4c31` [Ru-2], for which the IC50 is more than 50 µM in experiment [1]; 43.6 ± 1.2 µM in experiment [2]; more than 50 µM in experiment [3]; more than 50 µM in experiment [4]; more than 50 µM in experiment [5]. Besides, the “antitumor activity against all cancer cell lines screened” value in experiment [6] was “negligible antitumor activity”.

Consider `F[P-](F)(F)(F)(F)F.F[P-](F)(F)(F)(F)F.[Ru+2].c1ccc(-c2ccccn2)nc1.c1ccc(-c2ccccn2)nc1.c1cnc2c(c1)c1nc(-c3ccncc3)[nH]c1c1cccnc12` [Ru-1, reference compound], for which the IC50 was more than 50 µM in experiment [1]; 39.8 ± 0.6 µM in experiment [2]; more than 50 µM in experiment [3]; more than 50 µM in experiment [4]; more than 50 µM in experiment [5]. In experiment [6], the “antitumor activity against all cancer cell lines screened” value is recorded as “negligible antitumor activity”.

As to `N.N.[Cl][Pt][Cl]` [Cisplatin, reference compound], the IC50 in experiment [1] was 25.9 ± 0.8 µM; in experiment [2] it was 19.3 ± 0.5 µM; in experiment [3] it was 23.5 ± 2 µM; in experiment [4] it was 22.5 ± 2 µM; in experiment [5], 90.3 ± 0.3 µM.

A word on the IC50: it is the concentration at which inhibition is half-maximal. The low end stands for greater potency, the high end for weaker potency.
